According to the NIST ThermoML archive (doi:10.1016/j.fluid.2018.05.029):
Numbers after ± are expanded uncertainties.

Settings: Liquid; Resistive pulse heating

Q: Which results are given for `CN1CCN(C)CC1` [1,4-dimethylpiperazine]?
A: Critical pressure: 3730 ± 120 kPa; Critical temperature: 606 ± 6 K

Q: Which results are given for `O=C1CCCCCN1` [1-aza-2-cycloheptanone]?
A: Critical pressure: 4660 ± 140 kPa; Critical temperature: 801 ± 8 K

Q: With `CC1CNCC(C)N1` (stereo not drawn) [2,6-dimethylpiperazine] as the compound, how does the Critical pressure read?
A: The Critical pressure was 3800 ± 120 kPa.

Q: What about the Critical temperature of the same compound?
A: Its Critical temperature is 646 ± 6 K.

Q: For `C[S+](C)[O-]` [dimethyl sulfoxide], which Critical pressure is on record?
A: Its Critical pressure is 5130 ± 160 kPa.

Q: And the Critical temperature?
A: Its Critical temperature is 718 ± 7 K.
